Experimental data from patent publication EP3760185A1, “COSMETIC COMPOSITION TO PREVENT AND DELAY SKIN AGING” (Riccio, Rodolfo, priority 2019, dated 2021).

Tested on: actin
Test: polymerization of actin (in vitro test)
Format: cell-based
Conditions: compared to control
Text: Typically, the selected or purified maltodextrins described herein have the following properties: • a moisturizing and gelling (film-forming) action; • a stimulating action of fibroblasts and keratinocytes proliferation, responsible for the formation of granulation tissue and producers of collagen, elastin, proteoglycans, and other glycoproteins that intervene in the tissue regeneration phase • a skin regenerating action, found with representative in vitro tests such as synthesis of fibronectin, polymerization of actin, expression of enzymes such as Hyaluronan Synthase-2 • a skin protective action following the formation of an epidermal barrier

phosphatidic acid [PA]
polymerization of actin increase: 100%
